The text below walks through data of patent publication US20110281852A1 (priority 2010, published 2011).

Test [1] deals with C/EBPα. Nature of the test: Real-Time RT-PCR, C/EBPα mRNA in epididymal fat of FD mice. It counts as in vivo, mouse. The method, then:
RNA and protein purification and quantification from epididymal fat tissues: RNA and protein was isolated from 60 mg of epididymal fat tissues with Trizol (Invitrogen, Carlsbad, Calif., USA) following the protocol recommended by the manufacturers. RNA was dissolved in pure water and quantified at 260/280 nm, and sample integrity was checked by 1.5% agarose gel electrophoresis. Protein concentration was determined using the Micro BCA Protein Assay Kit (Fisher Scientific, Pittsburgh, Pa., USA) according to the manufacturer's instructions.
Quantitative Real-Time RT-PCR: Real-Time reverse transcriptase polymerase chain reaction (RT-PCR) analysis was used to measure mRNA expression of genes PPARγ, C/EBPα, GATA-2 and GATA-3 in the control of β-actin. Total RNA (0.8 μg) from each sample was used for a reverse transcription reaction using the TaqMan Reverse Transcription Reagents (Applied Biosystems, Foster City, Calif., USA) following the manufacturer's instructions. PCR was done using the SYBR green Master Mix (Applied Biosystems, Foster City, Calif., USA) following the manufacturer's instructions. The cycling conditions of amplification were as follows: an initial step of denaturation at 95° C. for 10 min, 40 cycles of denaturation at 95° C. for 30 s, annealing at 55° C. for 30 s, and elongation at 72° C. for 30 s. Real-Time PCR was performed using Mx3000P Real-Time Thermocyclers (Stratagene, La Jolla, Calif., USA). The relative mRNA levels of these genes were calculated by 2-delta delta CT method and normalized with control-treated groups.

Test [2] relates to 3T3-L1 cells. Nature of the test: MTT assay, 3T3-L1 viability during differentiation with clozapine, risperidone, berberine (Example 2). The format is cell-based, mouse. The following applies: day 8. The method, then: Cell culture and drug treatment: 3T3-L1 cells (American Type Culture Collection, Manassas, Va., USA) were cultured at 37° C. in a humidified 5% CO2 atmosphere and grown in a DMEM (Sigma-Aldrich, St. Louis, Mo. USA) supplemented with 10% Fetal Bovine Serum (FBS, Atlanta Biologicals Corp., Lawrenceville, Ga., USA), 100 units/ml penicillin and 100 μg/ml streptomycin. Differentiation was induced by addition of 167 nM insulin, 520 μM isobutylmethylxanthine (IBMX), and 1 μM dexamethasone for 2 days and then only with 167 nM insulin for 6 days. Detailed protocol was described as our previous report (Hu et al., Phytomedicine (2009) 16(9):864-873).
Medium was removed after differentiation and treatment for 8 days, MTT (Methylthiazolyldiphenyl—tetrazolium bromide 0.5 mg/ml, 50 μl/well) was added.

Test [3] concerns 3T3-L1 cells. Nature of the test: Oil-Red-O staining and quantification, clozapine/risperidone induced adipogenesis in 3T3-L1 (Example 2). It counts as cell-based, mouse. The following applies: 8 μM berberine, 8 days. Here is the method:
Detailed protocol was described as our previous report (Hu et al., Phytomedicine (2009) 16(9):864-873).
Oil-Red-O staining and quantification: Oil-Red-O Staining and its quantification were performed as previously reported (Liu et al., Sinica (2004) 25:1052-1057). Briefly, medium was removed and cells were washed with PBS twice, fixed with 3.7% formalin at room temperature for 30 min, then rinsed with pure water, added 60% isopropanol and incubated for 5 minutes, then moved out isopropanol and stained cells with diluted Oil-Red-O solution (Oil-Red-O store solution (3 mg/ml in pure isopropanol): water=3:2) at room temperature for 10 min. Then the diluted Oil-Red-O solution was removed and cells were washed 3 times with pure water. Images were obtained using an Olympus IX70 inverted microscope equipped for phase-contrast microscopy (Olympus, Tokyo, Japan). After staining, the cells were washed twice with 70% ethanol to remove excess stain. Stained oil droplets in the cells were dissolved in isopropanol containing 4% Nonidet-P40 (Fisher Scientific, Pittsburgh, Pa., USA) shaking in 37° C. at speed 100 rpm for 1 hour, and OD values were measured at an absorbance of 490 nm and then normalized with control group.

Test [4] relates to Adiponectin. Nature of the test: Real-time RT-PCR, Adiponectin mRNA in 3T3-L1. The following applies: 8 days. It counts as cell-based, mouse. From the text:
Realtime RT-PCR: Real-time reverse transcriptase polymerase chain reaction (RT-PCR) analysis was used to measure mRNA expression of genes SREBP-1, PPARγ, C/EBPα, low density lipoprotein receptor (LDLR), Adiponectin, and fatty acid synthase (FAS) under the control of β-actin. Briefly, total RNA was isolated from 3T3-L1 cells following treatment for 8 days with Trizol reagent (Invitrogen, Carlsbad, Calif., USA) according to the manufacturer's instruction. RNA was quantified using absorption of light at 260 nm, and sample purity was checked by OD 260 nm/280 nm. 0.8 μg of total RNA from each sample was used for reverse transcription reaction using the TaqMan Reverse Transcription Reagents (Applied Biosystems, Foster City, Calif., USA) according to the manufacturers' instructions. PCR was done using the SYBR green Master Mix (Applied Biosystems, Foster City, Calif., USA) according to the manufacturers' instructions. The temperature cycling conditions of amplification were as follows: an initial step of denaturation at 95° C. for 10 min, 40 cycles of denaturation at 95° C. for 30 s, annealing at 55° C. for 30 s, and elongation at 72° C. for 30 s. Realtime RT-PCR was performed using Mx3000P Realtime Thermocyclers (Statagene, La Jolla, Calif., USA). The relative mRNA levels of these genes were calculated by 2-delta delta CT method and normalized with control groups.
On the technique in general: Quantitative PCR measures a nucleic acid by following its amplification.

For test [5], the system named is 3T3-L1 cells. Nature of the test: Quantitative Oil Red O staining, 3T3-L1 adipocyte differentiation (Example 1). It counts as cell-based, mouse. The settings on record: for reduction in fat droplets: 6 days post differentiation induction. The method, then: Oil-Red-O Staining: Oil-Red-O Staining was performed as previously described (Liu et al. 2004). Images were obtained using an Olympus IX70 inverted microscope (Tokyo, Japan). Quantification Oil-Red-O Staining of cells was carried out as described (Furuyashiki et al., Biosci Biotechnol Biochem (2004) 68:[…]).
Standard Oil Red O staining was then used to examine the extent of differentiation process at days 2, 4, 6, and 8 using microscopy. […] (FIG. 4).

Test [6] has as its system SERT (serotonin transporter). Nature of the test: Immunoblot, SERT protein in RN46A cells. The format is cell-based.
Experimental: Immunoblot Analysis: Protein expression of SERT was assessed by Western Blot. Total proteins were isolated from RN46A cells treated with compounds or vehicles. The cells were washed twice with PBS, lysed in a lysis buffer containing HEPES-Tx-PI buffer: 910 mM HEPES, 5 mM EDTA, 350 mM Sucrose, 1 μg/ml leupeptin, 1 μg/ml pepstatin, 1% Triton-X, 1 mM PMSF), processed with a 25G needle and centrifuged at 10,000 rpm for 5 min. Protein concentration was determined using the Micro BCA Protein Assay Kit (Fisher Scientific, Pittsburgh, Pa., USA) according to the manufacturers instructions. 25 μg proteins were loaded and separated by electrophoresis using the BioRad Electrophoretic System (60 V for 1 hour followed by 90 V for 5 hours). The proteins were then transferred to nitrocellulose membranes at 35 V overnight. The membrane was blocked for 1 hour at room temperature in 5% nonfat milk in Tris-buffered saline (TBS), then washed with Tween-20-TBS (TTBS, 0.1% Tween-20) three times (15 min, 5 min, 5 min), followed by incubation with primary antibodies SERT (dilution 1:200) (Antibody was purchased from Santa Cruz Biotechnology, Santa Cruz, Calif., USA) and β-actin (dilution 1:1000) (Antibody was purchased from Sigma-aldrich, USA) at room temperature for 2 hours. […]

As a reminder, the inhibition is the change of the read-out against control, counted positive when it falls.

Consider `COc1ccc2cc3[n+](cc2c1OC)CCc1cc2c(cc1-3)OCO2.[Cl-]` [berberine, Berberine (Chloride Form)], for which the entries for the “decrease of C/EBP-α mRNA expression vs control group” value in test [1] (0.75 mg/kg/day), in test [1] (1.5 mg/kg/day) and in test [1] (3 mg/kg/day) were 46.4%, 66.1% and 72.7%, respectively. Also, the “decrease of cell viability vs no berberine treated group” value in test [2] (8 μM berberine combined with 0 μM clozapine) is 22.3%; in test [2] (8 μM berberine combined with 0 μM risperidone), 17.8%; in test [2] (8 μM berberine combined with 15 μM clozapine) it was 16.5%; in test [2] (8 μM berberine combined with 25 μM risperidone) it was 19.5%; in test [2] (8 μM berberine combined with 30 μM clozapine), 15%; in test [2] (8 μM berberine combined with 50 μM risperidone) it was 20.2%. Also, the “reduction in lipid content vs no berberine treated group” value in test [3] (15 μM clozapine group) is given as 78.5%; in test [3] (25 μM risperidone group) it was 78.7%; in test [3] (30 μM clozapine group), 73.2%; in test [3] (50 μM risperidone group), 81%; in test [3] (control group (clozapine series)), 70%; in test [3] (control group (risperidone series)), 72%. The “decrease of adiponectin mRNA expression vs clozapine treated group” value in test [4] (8 μM berberine + 15 μM clozapine) was 96.3%. In addition, in test [4] (8 μM berberine + 50 μM risperidone), the “decrease of Adiponectin mRNA expression vs risperidone treated group” value was found to be 98.2%. The “reduction in fat droplets” value in test [5] (1 μM) was 30.6%; in test [5] (2 μM), 35.8%; in test [5] (4 μM), 40%; in test [5] (8 μM), 48.6%. Moreover, the inhibition at 1 µM in test [5] (Mus musculus, 3T3-L1, 192 h, 1 μM, 8 days, fully differentiated cells, read-out: inhibition of fat amount) came to 59.4%. Moreover, the inhibition at 2 µM in test [5] (Mus musculus, 3T3-L1, 192 h, 2 μM, 8 days, fully differentiated cells, read-out: inhibition of fat amount) was found to be 58.4%. For the same compound, the inhibition at 4 µM in test [5] (Mus musculus, 3T3-L1, 192 h, 4 μM, 8 days, fully differentiated cells, read-out: inhibition of fat amount) was 71.8%. In test [5] (Mus musculus, 3T3-L1, 192 h, 8 μM, 8 days, fully differentiated cells, read-out: inhibition of fat amount), the inhibition at 8 µM came to 72.6%.
Turning to evodiamine, in test [6], the “SERT protein expression profile (Western blot)” value is reported as “consistent with its mRNA expression profile”.
